Assay results from ChEMBL document CHEMBL1142962, “Antiproliferative prenylated stilbenes and flavonoids from Macaranga alnifolia from the Madagascar rainforest” (J Nat Prod, 2007).

Tested on: A2780 (human ovarian cancer)
Test: Antiproliferative activity against drug-sensitive human A2780 cells

| Compound | IC50 |
| --- | --- |
| CC(C)=CCC/C(C)=C/Cc1c(O)cc2c(c1O)C(=O)[C@H](O)[C@@H](c1ccc(O)cc1)O2 [BONANNIOL A] | 23.5 µM |
| CC(C)=CCC/C(C)=C/Cc1c(O)cc2c(c1O)C(=O)[C@H](O)[C@@H](c1ccc(O)c(O)c1)O2 [DIPLACOL] | 11.5 µM |
